# Experiments:
# Ob/ob mice = test: Effect of a SERCA Agonist on the Level of Blood Glucose in Ob/ob mice; assay type: in vivo, mouse; conditions: 50 mg/kg i.p. once a day, 5 days, fasting glucose at baseline and 4 days after administration
# Procedure: Ob/ob mice (10 weeks old, n=7) were intraperitoneally (i.p.) injected with 100 μL of a solution containing 0 (vehicle) or 50 mg/kg of a test compound once a day for a total of 5 days. Fasting glucose was measured at baseline and 4 days after the administration of the test compound. Glucose levels were measured in blood samples drawn from the tail vein using a handheld glucose sensor. Compound effects on blood glucose are shown in Table 5 where A represents a 10-20% reduction in blood glucose, B represents a 21-30% reduction in blood glucose, and C represents a greater than 30% reduction in blood glucose levels.
# HEK293 cells; N2a cells = test: Cell Rescue Assay: Protection against Thapsigargin (TG)-induced Cell-death (ALAMARBLUE); assay type: cell-based, human (HEK293); mouse (N2a); conditions: compound 20 μM, 2 hrs before thapsigargin (15 μM for HEK293 cells and 1 μM for N2a cells), 24 hrs; cell line not given; read-out: Cell Survival %
# Procedure: Protection against Thapsigargin (TG)-induced Cell-death. Human embryonic kidney (HEK293) cells were grown in Dulbecco's Modified Eagle's Medium (DMEM) with 10% FBS and 1% antibiotic antimycotic solution (ABAM). Mouse neuroblastoma (N2a) cells were grown in 1:1 DMEM:OPTI-MEM® with 5% FBS and 1% ABAM. All cells were grown in 10% CO2 in a humidified environment of the incubator. Cells grown in 96-well plates were exposed to a test compound (20 μM) for 2 hrs before addition of thapsigargin (15 μM for HEK293 cells and 1 μM for N2a cells) to induce ER stress. After incubation in cell-culture incubator for 24 hrs, ALAMARBLUE® regent (10% v/v) was added to the wells. Fluorescence reading was taken 2 hrs after the addition of the ALAMARBLUE® regent. Cell-viability was calculated as a percentage of relative fluorescence unit (RFU) compared to control. […] The biological results are summarized in Table 2, where each compound was tested at 20 μM and where A represents a viability greater than 50%, B represents a viability greather than 10% and less than 50%, C represents a value below 10%.
# CSM14.1 neuronal cells = test: Cell Survival Assay (thapsigargin-treated CSM14.1 neuronal cells, CELLTITER-GLO luminescence); assay type: cell-based; conditions: CSM14.1 cells, about 15 μM thapsigargin, overnight (about 16 to 24 hrs), 2 hrs preincubation
# Procedure: CSM14.1 neuronal cells were maintained in Complete Medium at 32° C.; wherein the Complete Medium contained Dulbecco's modified eagle medium (DMEM) with 10% fetal bovine serum (FSB), 1% L-glutamine, 100 IU/mL penicillin, and 100 μg/mL streptomycin. […] Seeding was performed using a MultiDrop Combi reagent broadcaster. The plates were incubated overnight at 32° C. A test compound was prepared by 2-fold serial dilution in 100% DMSO using a BIOMEK® 2000 liquid handler (Beckman Coulter). A dose-response curve containing 10 concentrations of the test compound was obtained. Using a BIOMEK® FX liquid handler (Beckman Coulter), 2.5 μL of the test compound was transferred from the 100% DMSO serial dilution plate to an intermediate plate containing 47.5 μL of DMEM Assay Medium containing 2% FBS, 100 IU/mL penicillin, and 100 μg/mL streptomycin and mixed. […] The tissue culture media (4 μL) containing vehicle only was transferred manually to each control cell using a 16 channel electronic pipette. […] High luminescence indicates cell survival.
# SERCA = test: Ca-ATPase Assay (NADH-linked, enzyme-coupled ATPase assay, microsomal preparations from HEK 293 cells); assay type: biochemical, human; conditions: pH 7.0, 5 mM ATP, relative to controls
# Procedure: A Ca-ATPase assay was performed using microsomal preparations from HEK 293 cells at a series of calcium concentrations corresponding to the physiological range, relative to controls. The ATP hydrolysis rate was measured over a range of calcium concentrations in the presence of test compounds using an NADH-linked, enzyme-coupled ATPase assay adapted for 96-well microplates, with Vmax determined by fitting the ATPase calcium-dependence to the Hill function. Each well contained 2 μg or 7 μg of SR vesicles (optimized for skeletal or cardiac SR, respectively), 50 mM MOPS (pH 7.0), 100 mM KCl, 5 mM MgCl2, 1 mM EGTA, 0.2 mM NADH, 1 mM phosphoenol pyruvate, 5 IU pyruvate kinase, 5 IU lactate dehydrogenase, and 3.5 μg/mL A23187 (a calcium ionophore). CaCl2 was added to set free [Ca^2+] to the specific values. The assay was started upon addition of ATP at a final concentration of 5 mM, and read in a SpectraMax Plus microplate spectrophotometer. The results are summarized in Table 4, where A represents an increase in SERCA Vmax greater than 50% and B represents a value greater than 10% and less than 50%.
Structure (SMILES),Glucose level reduction (Ob/ob mice),viability at 20 µM (HEK293 cells; N2a cells),EC50 (CSM14.1 neuronal cells),SERCA Vmax Increase (SERCA)
"Cc1ccc2cccc(-c3nc(-c4ccc(OC(C)C)cc4)no3)c2n1 [Compound B1, 3-(4-Isopropoxyphenyl)-5-(2-methylquinolin-8-yl)-1,2,4-oxadiazole]",B (a 21-30% reduction in blood glucose),10 to 50%,1000 to 10000 nM,
"Cc1ccc2cccc(-c3nc(-c4ccc(Br)s4)no3)c2n1 [Compound B2, 3-(5-Bromothiophen-2-yl)-5-(2-methylquinolin-8-yl)-1,2,4-oxadiazole]",B (a 21-30% reduction in blood glucose),10 to 50%,1000 to 10000 nM,
"Cc1ccc2cccc(-c3nc(-c4cc(Br)cs4)no3)c2n1 [Compound B3, 3-(4-Bromothienyl-2-yl)-5-(2-methylquinolin-8-yl)-1,2,4-oxadiazole]",A (a 10-20% reduction in blood glucose),> 50%,1000 to 10000 nM,
"Cc1ccc2cccc(-c3nc(-c4ccc(Cl)cc4)no3)c2n1 [Compound B4, 3-(4-Chlorophenyl)-5-(2-methylquinolin-8-yl)-1,2,4-oxadiazole]",C (a greater than 30% reduction in blood glucose levels),> 50%,< 1000 nM,A (an increase in SERCA Vmax greater than 50%)

# — patent publication US10793558B2, “Quinoline oxadiazoles as cytoprotective agents” (priority 2015, dated 2020)
